Here are results for 2 compounds from article PMC8911181, “A Novel CDK4/6 and PARP Dual Inhibitor ZC-22 Effectively Suppresses Tumor Growth and Improves the Response to Cisplatin Treatment in Breast and Ovarian Cancer” (International Journal of Molecular Sciences, 2022).

Holding throughout (test): Cell viability assay (CCK-8), IC50
What all share (format): cell-based

One test has as its system MDA-MB-231 cells. The conditions noted are these: Homo sapiens, 6 days, medium replenished every 2 days. Here is the method:
(§1) Human breast cancer cell lines MDA-MB-231 and SUM-159, and human ovarian cancer cell lines OVCAR5 and SKOV3 were obtained from the American Type Culture Collection (ATCC). MDA-MB-231 cells were cultured in L-15 medium with 10% fetal bovine serum (FBS), incubated at 37 °C in a humidified incubator without additional CO2. SUM-159 cells were maintained in Dulbecco’s modified Eagle’s medium (DMEM) containing 10% FBS, and OVCAR5 and SKOV3 cells were incubated in Roswell Park Memorial Institute (RPMI)-1640 medium with 10% FBS and cultured at 37 °C in a humidified incubator containing 5% CO2.
(§2) Cell viability assay was performed as described before. Briefly, 2500/well of breast or ovarian cancer cells were seeded into a 96-well plate; grown overnight; treated with indicated concentration of Olaparib, LY2835219, ZC22, LP-1, GC-24, or cisplatin alone or together for an indicated amount of time; and then incubated with Cell Counting kit-8 (CCK-8) substrate (Dojindo, Kumamoto, Kyushu Island, Japan) for 1–2 h at 37 °C. Cell viability was calculated by the absorbance at 450 nm measured by the GloMax Explorer (Promega, Madison, WI, USA). Cells without treatment were set as 100%, and medium control (no cells) was set as 0%.
(§3) Figure 1 Synthesis strategy and activity assay of the novel compounds targeting both PARP and CDK4/6. (A) Synthesis strategy of the three novel compounds GC-24, LP-1, and ZC-22. (B) IC50 of GC-24, LP-1, and ZC-22 in breast and ovarian cancer cells. Cells were treated with increasing concentrations of GC-24, LP 1, or ZC-22 for 6 days with replenishment of medium every 2 days. Cell proliferation was analyzed by CCK-8 assays. (C) The reagents and conditions used for the chemical synthesis of ZC-22 in this study: (a) Pd(AcO)2, BINAP, CS2CO3, 1,4-Dioxane, 100 °C, 12 h; (b) CF3COOH, DCM, Room temperature, 6 h; (c) HOBt, EDCI, DIPEA, DMF, Room temperature, 12 h. TEXT PRINTED IN THE PICTURE: (B) LP-1: MDA-MB-231 IC50 (μM): >50; SUM-159 IC50 (μM): 7.780; OVCAR5 IC50 (μM): 10.11; SKOV3 IC50 (μM): 10.16 | (B) GC-24: MDA-MB-231 IC50 (μM): 33.77; SUM-159 IC50 (μM): 17.77; OVCAR5 IC50 (μM): 26.08; SKOV3 IC50 (μM): >50 | (B) ZC-22: MDA-MB-231 IC50 (μM): 3.608; SUM-159 IC50 (μM): 0.435; OVCAR5 IC50 (μM): 0.758; SKOV3 IC50 (μM): 0.542
(§4) Figure 2 ZC-22 suppresses proliferation of breast and ovarian cancer cells. (A) IC50 of ZC-22, Olaparib, and LY2835219 (Abemaciclib) in breast and ovarian cancer cells. Cells were treated with increasing concentrations of ZC-22, Olaparib, or LY2835219 for 6 days with replenishment of medium every 2 days. Cell proliferation was analyzed by CCK-8 assays. (B) Cell proliferation assay of breast and ovarian cancer cells with indicated treatment. MDA-MB-231 cells were treated with 2 μM Olaparib (OLA) or LY2835219 (LY-2) alone or together (OLA + LY-2) or with ZC-22 alone for 48 or 72 h. SUM-159, OVCAR5, and SKOV3 cells were treated with 0.5 μM OLA or LY-2 alone or together or with ZC-22 alone. Cell proliferation assay was analyzed by CCK-8 assays. Values are means ± SD, n = 3. ns, not significant, * p < 0.05, ** p < 0.01 and *** p < 0.001 for comparisons with the DMSO-treated group using an unpaired t-test. TEXT PRINTED IN THE PICTURE: (A) ZC-22: MDA-MB-231 IC50 (μM): 3.608; SUM-159 IC50 (μM): 0.435; OVCAR5 IC50 (μM): 0.758; SKOV3 IC50 (μM): 0.542 | (A) LY2835219: MDA-MB-231 IC50 (μM): 11.28; SUM-159 IC50 (μM): 0.664; OVCAR5 IC50 (μM): 9.791; SKOV3 IC50 (μM): 1.158 | (A) Olaparib: MDA-MB-231 IC50 (μM): 32.13; SUM-159 IC50 (μM): 19.29; OVCAR5 IC50 (μM): 30.51; SKOV3 IC50 (μM): >50

Another test concerns SKOV3 cells. Particulars: Homo sapiens, SK-OV-3, 6 days, medium replenished every 2 days. The protocol: as §1, §2, §3, §4
The subject of the next test is OVCAR5 cells. Particulars: Homo sapiens, OVCAR-5, 6 days, medium replenished every 2 days. Here is the method: as §1, §2, §3, §4
The test system of the next test is SUM-159 cells. Particulars: Homo sapiens, SUM159, 6 days, medium replenished every 2 days. Here is the method:
as §1, §2, §3, §4

`CCN1CCN(Cc2ccc(Nc3ncc(F)c(-c4cc(F)c5nc(C)n(C(C)C)c5c4)n3)nc2)CC1` [LY2835219, Abemaciclib, reference compound]: the IC50 in the test on MDA-MB-231 cells came out at 11300 nM; in the test with SKOV3 cells, 1160 nM; in the test with OVCAR5 cells it was 9790 nM; with SUM-159 cells it was 664 nM.

For `Cc1nc2c(F)cc(-c3nc(Nc4ccc(N5CCN(C(=O)c6cc(Cc7n[nH]c(=O)c8ccccc78)ccc6F)CC5)cn4)ncc3F)cc2n1C(C)C` [ZC-22, 4-(4-fluoro-3-(4-(6-((5-fluoro-4-(4-fluoro-1-isopropyl-2-methyl-1H-benzo[d]imidazole-6-yl)pyrimidin-2-yl)amino)pyridin-3-yl)piperazine-1-carbonyl)benzyl)phthalazin-1(2H)-one], the half-inhibitory concentration (IC50) with MDA-MB-231 cells was found to be 3610 nM; in the test with SKOV3 cells it was 542 nM; in the test on OVCAR5 cells, 758 nM; in the test on SUM-159 cells, 435 nM.
